Activity calls are given as the source filed them. How the calls were made is not given here. Where only a bound is given, the exact number is not on record here.

A word on the IC50: it is the midpoint of a concentration-inhibition curve.

Chain of Perilipin-1 (Homo sapiens) (O60240 whole entry, looked up, the tested form may be a part): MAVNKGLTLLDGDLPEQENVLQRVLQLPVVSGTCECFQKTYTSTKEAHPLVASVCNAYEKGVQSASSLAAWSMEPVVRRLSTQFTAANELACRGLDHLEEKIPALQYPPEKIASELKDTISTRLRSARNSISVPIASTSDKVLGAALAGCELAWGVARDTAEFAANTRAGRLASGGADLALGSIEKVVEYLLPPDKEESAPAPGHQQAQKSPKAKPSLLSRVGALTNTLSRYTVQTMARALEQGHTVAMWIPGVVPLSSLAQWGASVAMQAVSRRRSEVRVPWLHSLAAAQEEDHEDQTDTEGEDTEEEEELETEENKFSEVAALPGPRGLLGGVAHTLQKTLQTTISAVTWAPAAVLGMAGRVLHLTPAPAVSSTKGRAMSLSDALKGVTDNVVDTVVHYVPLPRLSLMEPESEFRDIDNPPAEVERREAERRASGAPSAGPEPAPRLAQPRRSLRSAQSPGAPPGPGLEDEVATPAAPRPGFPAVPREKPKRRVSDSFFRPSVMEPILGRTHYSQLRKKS

This assay concerns the target Perilipin-1 (Homo sapiens) (UniProt O60240). The experiment in a line: inhibitors of ABHD5-PLIN1 binding, dose response, counter-screen for ABHD5-PLIN5 interaction inhibitor project, biochemical, luminescence (AID 651672).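 Further: split Gaussia luciferase complementation between ABHD5 and PLIN1 fusion fragments.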 In general terms: A counterscreen serves to expose hits that act by an unwanted route or on another target.
`O=C(NC1CCCCC1)C(c1ccccc1)n1c(=O)c(-c2ccco2)nc2ccccc21` (stereo not given): the IC50 was 0.964 µM.

Consider `CCOC(=O)c1c(C)oc2c1c(CN1CCN(CCO)CC1)c(O)c1ccccc12`, for which the IC50 was 1.81 µM.

Consider `COc1ccc(NC(=O)C(c2ccc(C#N)cc2)n2c(=O)c(-c3ccco3)nc3ccccc32)cc1` (stereo not given), for which the IC50 result was “inactive”.

Turning to `COc1ccc(NC(=S)N(CCCN2CCCC2)Cc2cccn2Cc2ccc(Cl)cc2)cc1Cl`, the IC50 result was “inactive”.

For the molecule `CCCNC(=O)Nc1ccc2c(c1)N(C)C(=O)c1ccccc1S2`, the IC50 is 4.98 µM.

In the case of `CCN(CC)CCOCCOC(=O)C1(c2ccccc2)CCCC1`, the IC50 is 1.87 µM.

Take `O=C(NCc1ccccc1)C(c1ccc(-c2ccccc2)cc1)n1c(=O)c(-c2ccco2)nc2ccccc21` (stereo not given): the IC50 is 3.44 µM.

On to `O=c1c(-c2ccco2)nc2ccccc2n1C(CCc1ccccc1)c1nc2ccccc2[nH]1` (stereo not given), for which the IC50 was 2.32 µM.

For `COc1ccc(NC(=O)C(c2ccccc2)n2c(=O)c(-c3ccco3)nc3ccccc32)cc1` (stereo not given), the IC50 is 8.47 µM.

As to `O=C(C[n+]1cccc(CNC(=O)c2ccc(OC(F)F)cc2)c1)Nc1cccc(C(F)(F)F)c1`, the IC50 entry is “inactive”.

With `CCN(CC)CCOc1ccc(/C(=C(\Cl)c2ccccc2)c2ccccc2)cc1`, the IC50 is 2.23 µM.

`CCCC(=O)NC(c1cccc([N+](=O)[O-])c1)c1ccc2cccnc2c1O` (stereo not given): the IC50 is > 39.8 µM (inactive).

With `CCOc1cc(/C=C2\CCC/C(=C\c3cc(Cl)c(O)c(OCC)c3)C2=O)cc(Cl)c1O`, the IC50 was 3.88 µM.

Turning to `CCCCCNC(=O)C(c1ccc(C(F)(F)F)cc1)n1c(=O)c(-c2ccco2)nc2ccccc21` (stereo not given), the IC50 was 2.91 µM.

For the molecule `O=C1NC(=O)N(c2ccccc2F)C(=O)/C1=C/c1ccc(Oc2ccc([N+](=O)[O-])cn2)cc1`, the 50% inhibitory concentration (IC50) is 2.73 µM.

Take `CCN1/C(=C/C=C/c2oc3ccc(-c4ccccc4)cc3[n+]2CC)Oc2ccc(-c3ccccc3)cc21`: the IC50 is 1.25 µM.

As for `Cc1ccc(C(=O)c2c(C)oc3c2C(=O)C(=O)c2ccccc2-3)cc1`, the IC50 is 5.4 µM.

For the molecule `CCCCCNC(=O)C(C1CC1)n1c(=O)c(-c2ccco2)nc2ccccc21` (stereo not given), the IC50 was 6.58 µM.

For the molecule `O=C(NC1CCCCC1)C(c1ccc(C(F)(F)F)cc1)n1c(=O)c(-c2ccco2)nc2ccccc21` (stereo not given), the IC50 was 1.67 µM.

For the molecule `Cc1ccc(CC2(OCCN(C)C)CCC(C(C)(C)C)CC2)cc1` (stereo not given), the IC50 was 9.48 µM.

For the molecule `c1ccc(CCC2=NCCn3cccc32)cc1`, the IC50 result was “inactive”.

For `O=C(Nc1ccc2c(c1)OCCO2)C(c1ccccc1F)n1c(=O)c(-c2ccco2)nc2ccccc21` (stereo not given), the IC50 is 9.21 µM.

As for `Cc1cccc(C)c1NC(=O)C(c1cccc2ccccc12)n1c(=O)c(-c2ccco2)nc2ccccc21` (stereo not given), the IC50 was 2.4 µM.

With `CC1CN(Cc2c(O)ccc3c2oc(=O)c2ccccc23)CC(C)O1` (stereo not given), the IC50 was 2.92 µM.

For the molecule `Cc1ccc(C(=O)/C=C/c2cc(Br)cc(Br)c2O)o1`, the IC50 is 5.75 µM.

For the molecule `CC(=O)Oc1ccc(C23c4ccccc4C2(OC(C)=O)c2cc(OC(C)=O)ccc23)cc1` (stereo not given), the IC50 was 0.581 µM.

For `CCCCOC(=O)Nc1cc(C(=O)OC)ccc1C(=O)OC`, the IC50 is 6.03 µM.

In the case of `CN1[C@@H]2CC[C@H]1CC(OC1c3ccccc3CCc3ccccc31)C2` (stereo not given in full), the IC50 is 1.92 µM.

On to `CC(C)(C)NC(=O)C(C1CC1)n1c(=O)c(-c2ccco2)nc2ccccc21` (stereo not given), for which the IC50 is 4.21 µM.

Turning to `O=C(Cn1c(=O)n(Cc2ccco2)c(=O)c2c3c(sc21)CCCC3)Nc1ccccc1`, the IC50 was 8.69 µM.

For the molecule `COCCN(CCOC)c1nc(N)c2c(N)nc3c(c2c1C#N)CC(=O)N3Cc1ccc(Cl)cc1`, the IC50 is 6.57 µM.

As for `CN(C)c1ccc(Cc2cc3c(O)ccc(O)c3cc(Cc3ccc(N(C)C)cc3)c2=O)cc1`, the IC50 is 2.4 µM.

For `Cc1cccc(C)c1NC(=O)C(c1ccccc1F)n1c(=O)c(-c2ccco2)nc2ccccc21` (stereo not given), the IC50 is 2.81 µM.

Regarding `CSc1nnc(NC(=O)c2nc(S(=O)(=O)Cc3ccccc3)ncc2Cl)s1`, the IC50 is 3.27 µM.

Regarding `CCC(c1nc2ccccc2[nH]1)n1c(=O)c(-c2ccco2)nc2ccccc21` (stereo not given), the 50% inhibitory concentration (IC50) was 3.97 µM.

The values are drawn from PubChem BioAssay AID651672 (The Scripps Research Institute Molecular Screening Center, 2012).
